Assay results as given in patent publication EP4790066A1, “GLP-1R/GIPR/GCGR TRIPLE AGONIST ANALOGUE AND USE THEREOF” (Shenzhen Bay Laboratory, priority 2023, dated 2025).

Assays:
Type in all cases: cell-based
GLP-1R [1] = target: T1, GLP-1R (Homo sapiens, UniProt P43220); experiment: CreLuc method (CRE-luciferase reporter), HEK293/pGM-CREB-L-Luc/GLP-1R pool; conditions: 6 h incubation, read-out: EC50 (pM) for each receptor GLP-1R
T1 construct: expressed in transfected cells
In short: (§1)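 Stable HEK293 pools co-expressing each receptor with a CRE-luciferase reporter were plated at 20,000 cells/well in freestyle medium and treated with compound dilution series for 6 h at 37 °C. Luminescence was read with ONE-GLO to derive EC50.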

GIPR [2] = target: T2, GIPR (Homo sapiens, UniProt P48546); experiment: CreLuc method (CRE-luciferase reporter), HEK293/pGM-CREB-L-Luc/GIPR pool; conditions: 6 h incubation, read-out: EC50 (pM) for each receptor GIPR
T2 construct: expressed in transfected cells
T2 sequence (P48546 22-466): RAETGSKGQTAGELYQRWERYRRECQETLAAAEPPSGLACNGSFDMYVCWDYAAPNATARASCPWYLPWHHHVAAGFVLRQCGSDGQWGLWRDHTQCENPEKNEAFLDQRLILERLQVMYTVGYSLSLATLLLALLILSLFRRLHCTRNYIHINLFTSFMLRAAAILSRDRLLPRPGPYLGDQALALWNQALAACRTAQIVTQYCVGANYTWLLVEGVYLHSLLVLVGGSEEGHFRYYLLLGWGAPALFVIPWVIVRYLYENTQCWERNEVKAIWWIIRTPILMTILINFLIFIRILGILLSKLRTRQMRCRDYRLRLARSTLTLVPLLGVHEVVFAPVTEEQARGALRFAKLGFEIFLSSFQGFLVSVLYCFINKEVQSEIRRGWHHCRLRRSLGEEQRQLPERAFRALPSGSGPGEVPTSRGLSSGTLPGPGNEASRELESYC
In short: as §1

GCGR [3] = target: T3, GCGR (Homo sapiens, UniProt P47871); experiment: CreLuc method (CRE-luciferase reporter), 293HEK/pGM-CREB-L-Luc/GCGR pool; conditions: 6 h incubation, read-out: EC50 (pM) for each receptor GCGR
T3 construct: expressed in transfected cells
T3 sequence (P47871 26-477, species assumed): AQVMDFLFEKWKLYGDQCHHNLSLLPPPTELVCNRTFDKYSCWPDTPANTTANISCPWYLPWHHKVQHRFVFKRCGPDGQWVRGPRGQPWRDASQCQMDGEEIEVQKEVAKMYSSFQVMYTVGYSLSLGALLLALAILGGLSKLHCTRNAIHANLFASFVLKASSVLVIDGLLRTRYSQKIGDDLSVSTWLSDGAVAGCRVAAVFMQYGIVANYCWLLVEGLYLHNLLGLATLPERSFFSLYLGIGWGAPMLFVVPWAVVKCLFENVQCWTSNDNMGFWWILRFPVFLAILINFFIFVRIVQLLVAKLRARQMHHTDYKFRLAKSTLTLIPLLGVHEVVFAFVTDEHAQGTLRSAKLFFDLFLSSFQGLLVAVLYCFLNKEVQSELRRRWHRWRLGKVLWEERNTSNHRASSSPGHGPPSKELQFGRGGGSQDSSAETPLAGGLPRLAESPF
In short: as §1

GLP-1R [4] = target: T1, GLP-1R; experiment: cAMP method (HTRF cAMP detection kit), HEK293/pGM-CREB-L-Luc/GLP-1 pool; conditions: read-out: EC50 (pM) for each receptor GLP-1R
Procedure: 2. Insulinotropic analogues can bind to target receptors on the cell membrane, activate the receptors, and induce release. The activity of the test substance can be determined using the HTRF method with a cAMP detection kit. Therefore, the cAMP method can be used to detect the target peptide derivatives (or polypeptide derivatives, i.e., TG1-TG86) prepared in Example 1 and Example 2. […] The test cell line was selected, treated with cAMP-specific trypsin for digestion. 3 mL of serum-free DMEM culture medium was added, and the cells were pipetted, resuspended, and counted. 5 µL of IBMX (prepared with serum-free DMEM medium, 0.5 mM) and test cells (5 µL/7500 cells/well) were added in a 384-well plate sequentially. The plate was incubated at 37°C under 5% CO2 for 30 min, followed by the addition of cAMP-d2 (5 µL, 1x) and Anti-cAMP-Cryptate (5 µL, 1x). The mixture was kept at room temperature for 1 h, after which the HTRF value was measured using a chemiluminescent microplate reader, and the determination result was recorded. […] Table 4: EC50 values for target peptide derivatives

GIPR [5] = target: T2, GIPR; experiment: cAMP method (HTRF cAMP detection kit), HEK293/pGM-CREB-L-Luc/GIP pool; conditions: read-out: EC50 (pM) for each receptor GIPR
GCGR [6] = target: T3, GCGR; experiment: cAMP method (HTRF cAMP detection kit), HEK293/pGM-CREB-L-Luc/GCG pool; conditions: read-out: EC50 (pM) for each receptor GCGR

T1 sequence (P43220 24-463, species assumed): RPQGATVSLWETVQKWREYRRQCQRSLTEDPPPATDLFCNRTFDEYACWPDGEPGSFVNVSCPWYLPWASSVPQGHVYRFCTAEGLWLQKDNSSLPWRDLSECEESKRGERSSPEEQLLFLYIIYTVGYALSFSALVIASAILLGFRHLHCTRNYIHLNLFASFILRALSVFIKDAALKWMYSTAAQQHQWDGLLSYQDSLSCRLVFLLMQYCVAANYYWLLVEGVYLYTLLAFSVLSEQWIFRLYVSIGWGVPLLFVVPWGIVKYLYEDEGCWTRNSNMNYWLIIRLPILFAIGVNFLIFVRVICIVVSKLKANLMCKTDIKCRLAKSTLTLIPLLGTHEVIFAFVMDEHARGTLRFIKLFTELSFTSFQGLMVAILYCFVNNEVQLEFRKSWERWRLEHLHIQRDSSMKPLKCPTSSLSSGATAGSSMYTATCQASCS

Row | Compound | EC50 (GLP-1R [1]) [pM] | EC50 (GIPR [2]) [pM] | EC50 (GCGR [3]) [pM] | EC50 (GLP-1R [4]) [pM] | EC50 (GIPR [5]) [pM] | EC50 (GCGR [6]) [pM]
1 | CC[C@H](C)[C@@H]1NC(=O)[C@H](Cc2ccccc2)NC(=O)[C@H](C)NC(=O)C(C)(C)NC(=O)[C@H](CCC(N)=O)NC(=O)[C@H](C)NC(=O)[C@@H](NC(=O)[C@H](CCCCN)NC(=O)[C@H](CC(=O)O)NC(=O)[C@H](CC(C)C)NC(=O)[C@H](CC(C)C)NC(=O)[C@@H](NC(=O)[C@H](CO)NC(=O)[C@H](Cc2ccc(O)cc2)NC(=O)[C@H](CC(=O)O)NC(=O)[C@H](CO)NC(=O)[C@@H](NC(=O)[C@H](Cc2ccccc2)NC(=O)[C@@H](NC(=O)CNC(=O)[C@H](CCC(N)=O)NC(=O)C(C)(C)NC(=O)[C@@H](N)Cc2ccc(O)cc2)[C@@H](C)O)[C@@H](C)O)[C@@H](C)CC)CSCC(=O)NCCN(C(=O)CCC(=O)NCCOCCOCC(=O)NCCOCCOCC(=O)NCCCC[C@H](NC(=O)CCCCCCCCCCCCCCCCCCC(=O)O)C(=O)O)CCNC(=O)CSC[C@@H](C(=O)N[C@@H](Cc2ccc(O)cc2)C(=O)N[C@@H](CC(C)C)C(=O)N[C@@H](CC(C)C)C(=O)N[C@@H](CCC(=O)O)C(=O)NCC(=O)NCC(=O)N2CCC[C@H]2C(=O)N[C@@H](CO)C(=O)N[C@@H](CO)C(=O)NCC(=O)N[C@@H](C)C(=O)N2CCC[C@H]2C(=O)N2CCC[C@H]2C(=O)N2CCC[C@H]2C(=O)N[C@@H](CO)C(N)=O)NC1=O [TG12] | 205 | 66.6 | 325 | 5.8 | 12.1 | 40.3
2 | CC(C)C[C@H](NC(=O)[C@H](CC(C)C)NC(=O)[C@H](Cc1c[nH]c2ccccc12)NC(=O)[C@@H]1CSCC(=O)NCCN(C(=O)CCC(=O)NCCOCCOCC(=O)NCCOCCOCC(=O)NCCCC[C@H](NC(=O)CCCCCCCCCCCCCCCCCCC(=O)O)C(=O)O)CCNC(=O)CSC[C@H](NC(=O)[C@H](CCCCN)NC(=O)[C@H](CC(=O)O)NC(=O)[C@H](CC(C)C)NC(=O)[C@H](Cc2ccc(O)cc2)NC(=O)[C@H](CCCCN)NC(=O)[C@H](CO)NC(=O)[C@H](Cc2ccc(O)cc2)NC(=O)[C@H](CC(=O)O)NC(=O)[C@H](CO)NC(=O)[C@@H](NC(=O)[C@H](Cc2ccccc2)NC(=O)[C@@H](NC(=O)CNC(=O)[C@H](Cc2c[nH]cn2)NC(=O)C(C)(C)NC(=O)[C@@H](N)Cc2c[nH]cn2)[C@@H](C)O)[C@@H](C)O)C(=O)N[C@@H](Cc2ccc(O)cc2)C(=O)N[C@@H](C)C(=O)N[C@@H](CCC(N)=O)C(=O)N[C@@H](CC(=O)O)C(=O)N[C@@H](Cc2ccccc2)C(=O)N[C@@H](C(C)C)C(=O)N1)C(=O)N[C@@H](CCC(=O)O)C(=O)NCC(=O)NCC(=O)N1CCC[C@H]1C(=O)N[C@@H](CO)C(=O)N[C@@H](CO)C(=O)NCC(=O)N[C@@H](C)C(=O)N1CCC[C@H]1C(=O)N1CCC[C@H]1C(=O)N1CCC[C@H]1C(=O)N[C@@H](CO)C(N)=O [TG10] | 359 | 368 | 149 | 2.5 | 9.7 | 8.5
